Laboratory results as given in BindingDB's records for patent US9572811 (Principia Biopharma, 2017).

Biological target: Tyrosine-protein kinase BTK (Homo sapiens, UniProt Q06187)
Experiment: Caliper-based kinase assay
Details: 25 °C
Protocol: A Caliper-based kinase assay (Caliper Life Sciences, Hopkinton, Mass.) was used to measure inhibition of Btk kinase activity of a compound of Formula (I). […] The reaction was then terminated with EDTA, final concentration 20 mM and the phosphorylated reaction product was quantified on a Caliper Desktop Profiler (Caliper LabChip 3000).

Sequence of Tyrosine-protein kinase BTK (Q06187 whole entry): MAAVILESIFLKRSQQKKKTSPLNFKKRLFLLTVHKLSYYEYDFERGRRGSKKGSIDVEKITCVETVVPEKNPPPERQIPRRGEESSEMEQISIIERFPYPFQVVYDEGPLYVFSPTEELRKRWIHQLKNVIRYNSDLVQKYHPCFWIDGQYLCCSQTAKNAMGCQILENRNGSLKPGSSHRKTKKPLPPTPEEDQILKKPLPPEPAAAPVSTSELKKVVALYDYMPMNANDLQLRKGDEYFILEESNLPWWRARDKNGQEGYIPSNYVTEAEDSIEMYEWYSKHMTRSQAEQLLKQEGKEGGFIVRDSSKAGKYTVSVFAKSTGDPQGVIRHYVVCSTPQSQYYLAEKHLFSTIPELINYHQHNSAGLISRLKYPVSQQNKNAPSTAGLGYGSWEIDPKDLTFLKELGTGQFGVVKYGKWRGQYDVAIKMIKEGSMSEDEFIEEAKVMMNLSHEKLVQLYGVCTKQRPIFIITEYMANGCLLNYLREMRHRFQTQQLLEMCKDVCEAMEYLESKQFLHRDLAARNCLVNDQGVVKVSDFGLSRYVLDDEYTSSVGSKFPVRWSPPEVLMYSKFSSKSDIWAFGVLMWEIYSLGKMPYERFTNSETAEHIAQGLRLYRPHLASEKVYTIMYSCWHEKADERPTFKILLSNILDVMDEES

IC50: 4.3 nM
SMILES: CN(CCn1nc(-c2ccc(Oc3ccccc3)cc2)c2c(N)ncnc21)C(=O)C(C#N)=CC1CC1 [US9572811, Example 36A]
